pIC50: −log10 of the molar value. Read-outs that look alike come from different tables or passages of the source.
What was measured:
Type in all cases: biochemical
[1] = target: CDK-2 enzyme, complexed with cyclin A (Homo sapiens, UniProt P24941); test: CDK2 enzyme inhibition assay (33P phosphorylation of peptide […], filter plate); details: CDK-2/cyclin A, 0.1 mM ATP, 40 min at 30° C.
Procedure: (§1) The assay mixture containing the inhibitor and CDK-2 enzyme, complexed with cyclin A (0.4 U/ml) was mixed together in a microtiter plate in a final volume of 50 μl and incubated for 40 min at 30° C. The assay mixture contained 0.1 mM unlabeled ATP, 0.01 μCi/μl ^33P-γ-ATP, 0.03 mM peptide, 0.1 mg/ml BSA, 7.5 mM magnesium acetate, 50 mM HEPES-NaOH, pH 7.5. The reaction was stopped by adding 50 μl of 50 mM phosphoric acid. 90 μl of the mixture were transferred to a pre-wetted 96-well Multiscreen MAPHNOB filtration plate (Millipore) and filtered on a vacuum manifold. […] The filtration plate was dried for 10 min at 65° C., scintillant added and phosphorylated peptide quantified in a scintillation counter (Trilux, PerkinElmer)
HEPES is N-[2-Hydroxyethyl]piperazine-N′-[2-ethanesulfonic acid] BSA is bovine serum albumin.

[2] = target: T1, PDK1 enzyme (Homo sapiens, UniProt O15530); test: PDK1 kinase inhibition assay (33P phosphorylation of synthetic peptide, filter plate); details: 0.01 mM ATP, 60 min at 30° C.; for pIC50: read-out: PDK1 IC50
T1 sequence (O15530 1-556): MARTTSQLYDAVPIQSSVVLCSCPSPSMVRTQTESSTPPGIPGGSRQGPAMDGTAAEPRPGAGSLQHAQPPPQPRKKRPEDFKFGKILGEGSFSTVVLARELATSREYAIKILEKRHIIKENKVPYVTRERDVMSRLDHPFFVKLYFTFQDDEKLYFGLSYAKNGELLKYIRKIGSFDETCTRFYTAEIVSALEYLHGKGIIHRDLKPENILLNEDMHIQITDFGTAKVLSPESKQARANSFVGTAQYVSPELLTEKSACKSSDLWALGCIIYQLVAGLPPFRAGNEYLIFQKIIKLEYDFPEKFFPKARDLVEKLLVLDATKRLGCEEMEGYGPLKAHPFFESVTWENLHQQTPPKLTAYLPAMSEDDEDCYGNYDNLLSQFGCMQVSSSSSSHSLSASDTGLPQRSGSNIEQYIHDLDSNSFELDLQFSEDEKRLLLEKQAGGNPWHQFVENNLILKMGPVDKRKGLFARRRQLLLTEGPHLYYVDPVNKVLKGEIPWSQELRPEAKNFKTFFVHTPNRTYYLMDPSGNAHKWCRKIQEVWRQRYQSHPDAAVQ
Procedure: as §1, with “and PDK1 enzyme” for “and CDK-2 enzyme, complexed with cyclin A (0.4 U/ml)”, “for 60” for “for 40”, “contained 0.01” for “contained 0.1”, “^33P-γ-ATP, 0.075” for “^33P-γ-ATP, 0.03”, “acetate, 0.05M Tris.HCl,” for “acetate, 50 mM HEPES-NaOH,”, “pH 7.5, 0.5% 2-mercaptoethanol.” for “pH 7.5.”

[3] = target: T2, GST-Chk1 enzyme (Homo sapiens, UniProt O14757); test: Chk1 kinase inhibition assay (33P phosphorylation of Chktide, filter plate); details: 0.01 mM ATP, 11 nM GST-Chk1, 40 minutes at 30° C.; for pIC50: read-out: Chk1 IC50
T2 sequence (O14757 1-476): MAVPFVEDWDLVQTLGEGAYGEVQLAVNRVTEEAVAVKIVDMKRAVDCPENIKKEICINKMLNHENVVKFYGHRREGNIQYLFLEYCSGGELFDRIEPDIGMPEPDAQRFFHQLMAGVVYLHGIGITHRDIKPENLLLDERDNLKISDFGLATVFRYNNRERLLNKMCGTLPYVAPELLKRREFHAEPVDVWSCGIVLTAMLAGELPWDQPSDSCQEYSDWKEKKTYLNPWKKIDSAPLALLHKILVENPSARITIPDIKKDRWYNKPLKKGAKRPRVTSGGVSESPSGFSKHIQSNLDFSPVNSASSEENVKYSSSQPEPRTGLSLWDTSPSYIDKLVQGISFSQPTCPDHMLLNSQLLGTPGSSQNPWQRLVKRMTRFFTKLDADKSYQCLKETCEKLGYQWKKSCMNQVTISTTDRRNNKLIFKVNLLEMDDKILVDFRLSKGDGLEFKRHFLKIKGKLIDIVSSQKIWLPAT
Procedure: The assay mixture containing the inhibitor and Chk1 enzyme was mixed together in a microtiter plate in a final volume of 50 μl and incubated for 40 minutes at 30° C.
The reaction was stopped by adding 50 μl of 50 mM phosphoric acid. 90 μl of the mixture was transferred to a pre-wetted 96-well Multiscreen MAPHNOB filtration plate (Millipore) and filtered on a vacuum manifold. […] The filtration plate was dried for 10 min at 65° C., scintillant added and phosphorylated peptide quantified in a scintillation counter (Trilux, PerkinElmer)

pIC50 [1] | pIC50 [2] | further results | SMILES
6.64 |  |  | Clc1cc(NCc2ccncc2)n2ncc(Br)c2n1 [Example 161]
4.92 |  |  | CC(C)c1cnn2c(Nc3ccc(S(=O)(=O)N(C)C)cc3)cc(C(=O)N3CCC(N4CCCC4)CC3)nc12 [Example 130]
4.62 | 5.34 |  | CC1(C)CC(Nc2cc(Nc3ccc(S(=O)(=O)N4CCCC4)cc3)n3ncc(Br)c3n2)CC(C)(C)N1 [Example 179]
 | 6.27 | pIC50 [3]: 5.66 | CC(C)c1cnn2c(Nc3ccc(S(=O)(=O)N(C)C)cc3)cc(N[C@H]3CC[C@@H](N)CC3)nc12 [Example 116]
 |  | IC50 ([3]; Chk1 IC50(μM)): > 200 µM; IC50 ([2]; PDK1 IC50(μM)): > 200 µM | CS(=O)(=O)c1ccc(Nc2cc(Cl)nc3ccnn23)cc1 [Example 15]
7.28 |  |  | CC(C)c1cnn2c(Nc3ccc(S(=O)(=O)N(C)CCN(C)C)cc3)cc(Cl)nc12 [Example 68]
6.74 | 5.49 |  | O=S(=O)(c1ccc(Nc2cc(N[C@H]3CC[C@H](O)CC3)nc3c(Br)cnn23)cc1)N1CCCC1 [Example 176]
4.98 | < 3.70 |  | CS(=O)(=O)c1ccc(Nc2ccnc3ccnn23)cc1 [Example 19]
 | 5.98 | pIC50 [3]: 6.14 | N[C@H]1CC[C@H](Nc2cc(Nc3ccc(S(=O)(=O)c4ccccc4)cc3)n3ncc(Br)c3n2)CC1 [Example 137]
5.70 |  |  | CC(C)c1cnn2c(Nc3ccc(S(=O)(=O)N(C)C)cc3)cc(N3CCC(N)C3)nc12 (stereo not drawn) [Example 129]
6.96 | 4.42 |  | CCc1cnn2c(Nc3ccc(S(=O)(=O)Nc4nccs4)cc3)cc(Cl)nc12 [Example 151]
5.87 |  | pIC50 [3]: < 3.70 | CC(C)c1cnn2c(Nc3ccc(S(=O)(=O)N(C)C)cc3)cc(C(=O)N3CCC(N)CC3)nc12 [Example 123]
 | 4.70 | pIC50 [3]: 5.26 | CC(C)c1cnn2c(Nc3ccc(S(=O)(=O)N(C)C)cc3)cc(N[C@H]3CC[C@H](N)CC3)nc12 [Example 30, 3-isopropyl-5-(trans-4-aminocyclohexylamino)-7-(4-(N,N-dimethylsulphonamido)phenylamino)pyrazolo[1,5-a]pyrimidine]
6.62 |  |  | CC(C)c1cnn2c(Nc3ccc(S(=O)(=O)N(C)C)cc3)cc(Cl)nc12 [Example 27]
7.55 |  |  | N[C@H]1CC[C@H](Nc2cc(Nc3ccc(Oc4cccnc4)cc3)n3ncc(Cl)c3n2)CC1 [Example 189]
6.64 | < 4.30 |  | CS(=O)(=O)c1ccc(Nc2cc(Cl)nc3c(Br)cnn23)cc1 [Example 144]
4.65 | 4.89 |  | CCc1cnn2c(Nc3ccc(S(=O)(=O)N(C)C)cc3)cc(NC3CC(C)(C)NC(C)(C)C3)nc12 [Example 175]
5.29 |  |  | CNC(=O)C1CCN(C(=O)c2cc(Nc3ccc(S(=O)(=O)N(C)C)cc3)n3ncc(C(C)C)c3n2)CC1 [Example 133]
5.03 |  |  | CC(C)c1cnn2c(Nc3ccc(S(=O)(=O)N(C)C)cc3)cc(C(=O)N3CCC(CN)CC3)nc12 [Example 131]
4.95 |  |  | CN(C)S(=O)(=O)c1ccc(Nc2cc(N[C@H]3CC[C@@H](N)CC3)nc3c(S(C)(=O)=O)cnn23)cc1 [Example 200]
 | 6.18 |  | N[C@H]1CC[C@@H](Nc2cc(Nc3ccc(S(=O)(=O)Nc4nccs4)cc3)n3ncc(Br)c3n2)CC1 [Example 177]
5.93 |  |  | CC(C)c1cnn2c(NC3CCN(S(=O)(=O)C(C)C)CC3)cc(Cl)nc12 [Example 159]

Source: patent US20070179161A1, “Pyrazolopyrimidine compounds and their use in medicine” (VERNALIS (CAMBRIDGE) LIMITED., priority 2003, published 2007)
